Measurements reported in patent US12129265B2, “Therapeutic agents and uses thereof” (Ankh Life Sciences Limited, priority 2020, dated 2024).

Experiments:
Test in all cases: CellTiter-Glo in vitro cell proliferation assay, Example 8
Assay type in all cases: cell-based, Human
H929 cells = settings: NCI-H929; H929, Human Myeloma, 72 hours; read-out: Mean IC50
Summary of the method: (§1)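 Growth was assessed on cells given 24 h to settle at 37 °C, then incubated 72 h with compound (0.0075–100 μM, DMSO carrier). A room-temperature, 60 min CellTiter-Glo step preceded luminescence measurement.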

JIM1 cells = settings: JIM1, Human Myeloma, 72 hours; read-out: Mean IC50
Summary of the method: as §1

KMS-34 cells = settings: KMS-34, Human Myeloma, 72 hours; read-out: Mean IC50
Summary of the method: as §1

A2780 cells = settings: Homo sapiens; A2780, Ovarian, 72 hours; read-out: Mean IC50
Summary of the method: as §1

KHM-1B cells = settings: Human Myeloma, 72 hours, read-out: Mean IC50
Summary of the method: as §1

A2780CP cells = settings: Homo sapiens, A2780C/P, Ovarian, 72 hours, read-out: Mean IC50
Summary of the method: as §1

MDA-MB-468 cells = settings: Homo sapiens; MDA-MB-468, Triple Negative Breast, 72 hours; read-out: Mean IC50
Summary of the method: as §1

KMS-11 cells = settings: KMS-11, Human Myeloma, 72 hours; read-out: Mean IC50
Summary of the method: as §1

MM.1s cells = settings: MM1.S; MM.IS, Human Myeloma, 72 hours; read-out: Mean IC50
Summary of the method: as §1

A498 cells = settings: Homo sapiens; A498, Renal, 72 hours; read-out: Mean IC50
Summary of the method: as §1

KMM-1 cells = settings: KMM-1, Human Myeloma, 72 hours; read-out: Mean IC50
Summary of the method: as §1

H1975 (EGFR mut) cells = settings: Homo sapiens, NCI-H1975, Non Small Cell Lung, 72 hours, read-out: Mean IC50
Summary of the method: as §1

FaDu cells = settings: Homo sapiens, Squamous, 72 hours, read-out: Mean IC50
Summary of the method: as §1

MDA-MB-231 cells = settings: Homo sapiens; MDA-MB-231, Triple Negative Breast, 72 hours; read-out: Mean IC50
Summary of the method: as §1

HEC-1a cells = settings: Homo sapiens, Endometrial, 72 hours, read-out: Mean IC50
Summary of the method: as §1

L363 cells = settings: L-363; L363, Human Myeloma, 72 hours; read-out: Mean IC50
Summary of the method: as §1

BxPC-3 cells = settings: Homo sapiens; BxPC-3, Pancreatic, 72 hours; read-out: Mean IC50
Summary of the method: as §1

SiHA cells = settings: Homo sapiens, Squamous, 72 hours, read-out: Mean IC50
Summary of the method: as §1

OCI-LY3 cells = settings: Homo sapiens; OCI-LY3, Diffuse Large B-Cell Lymphoma, 72 hours; read-out: Mean IC50
Summary of the method: as §1

DOHH-2 cells = settings: Homo sapiens; DOHH-2, Diffuse Large B-Cell Lymphoma, 72 hours; read-out: Mean IC50
Summary of the method: as §1

AN3CA cells = settings: Homo sapiens, AN3-CA, Endometrial, 72 hours, read-out: Mean IC50
Summary of the method: as §1

KMS-27 cells = settings: KMS-27, Human Myeloma, 72 hours; read-out: Mean IC50
Summary of the method: as §1

HCC70 cells = settings: Homo sapiens; HCC70, Triple Negative Breast, 72 hours; read-out: Mean IC50
Summary of the method: as §1

MIA PaCa-2 cells = settings: Homo sapiens; MIA PaCa-2, Pancreatic, 72 hours; read-out: Mean IC50
Summary of the method: as §1

MOLP-8 cells = settings: MOLP-8, Human Myeloma, 72 hours; read-out: Mean IC50
Summary of the method: as §1

IC50 (H929 cells): 4.3 µM | IC50 (A2780 cells): 2030 nM | IC50 (A2780CP cells): 4.4 µM | IC50 (MDA-MB-468 cells): 3.75 µM | IC50 (MM.1s cells): 2260 nM | IC50 (H1975 (EGFR mut) cells): 4.27 µM | IC50 (MDA-MB-231 cells): 3.89 µM | IC50 (BxPC-3 cells): 2620 nM | IC50 (OCI-LY3 cells): 2870 nM | IC50 (MIA PaCa-2 cells): 3.38 µM
SMILES: COc1ccc2c3c([nH]c2c1)C(CC(CC1=NCCc2c1[nH]c1cc(OC)ccc21)c1ccccc1)=NCC3 [compound 560]
IC50 (JIM1 cells): 5.17 µM | IC50 (KMS-34 cells): 6.67 µM | IC50 (KHM-1B cells): 7.58 µM | IC50 (KMS-11 cells): 4.95 µM | IC50 (A498 cells): 3.34 µM | IC50 (KMM-1 cells): 5.3 µM | IC50 (FaDu cells): 2050 nM | IC50 (HEC-1a cells): 5.1 µM | IC50 (L363 cells): 5.27 µM | IC50 (SiHA cells): 11.6 µM | IC50 (DOHH-2 cells): 6.39 µM | IC50 (AN3CA cells): 2710 nM | IC50 (KMS-27 cells): 3.94 µM | IC50 (HCC70 cells): 5.94 µM | IC50 (MOLP-8 cells): 2890 nM
